From PubChem BioAssay AID1996 come the findings set out here.

Structures are written as SMILES. ≈ marks a conversion by molar mass, not a printed value. Bounds are passed on as bounds.

The conditions of this data set: buffer; pH 7.4; 200.0 µM.
As to `Cc1cc(-c2ccccc2)c2ccc(NC(=O)C(C)(C)C)nc2n1`, the solubility (kinetic) turned out to be 0.6 µg/mL (≈ 1.88 µM). The figure for `O=C(O)C1CCc2sc3[nH]c(=S)n(-c4ccccc4)c(=O)c3c21` (stereo unspecified) is more than 51.7 µg/mL; for `CCOc1ccc(Nc2cc(C)nc3ccc(C)cc23)cc1` it is 40 µg/mL (≈ 137 µM). In turn, `COc1ccccc1C(=O)C1CCCN(Cc2ccc3c(c2)OCCO3)C1` (stereo unspecified) came in with a solubility (kinetic) of 36.7 µg/mL (≈ 99.9 µM). This solubility kinetic and that of the compound before are within 1.5-fold of each other.

`N#Cc1c(N)nc2c(c1N)CC(C(F)(F)F)O2` (stereo unspecified) showed a kinetic solubility of more than 36.6 µg/mL.

Compound `O=C(O)c1cccc(Nc2ccncc2[N+](=O)[O-])c1` yielded a kinetic solubility of more than 38.9 µg/mL.

On to `S=C(Nc1ccccc1)N1CCC(Cc2ccccc2)CC1`, for which the kinetic solubility was determined as 14.5 µg/mL (≈ 46.7 µM). The figure for `Cc1cc(C)c2nc(C)cc(Nc3ccc(C(=O)NCCO)cc3)c2c1` is 35.5 µg/mL (≈ 102 µM). Next, `O=C(Nc1ccc(Cl)cc1Cl)c1csc(-c2cccnc2)n1`: 1.6 µg/mL (≈ 4.57 µM); `C=CCON/C(CCC)=C1\C(=O)C(C(=O)OC)C(C)(C)CC1=NC` (stereo unspecified): 40.4 µg/mL (≈ 120 µM). The figure for `CC1CC1C(=O)OCC(=O)N(C)CC(=O)Nc1ccc(F)cc1` (stereo unspecified) is more than 48.4 µg/mL; for `CCC(CC)C(=O)c1c[nH]c(C(=O)NC2CCCCCC2)c1` it is 2 µg/mL (≈ 6.57 µM); for `COc1ccc(CNC(=O)COC(=O)/C=C/c2cccc(Cl)c2)cc1` it is 3.3 µg/mL (≈ 9.17 µM).

On to `O=C(Nc1cccc(F)c1)NC1CCCCCCC1`, for which the kinetic solubility came to 9 µg/mL (≈ 34 µM). The figure for `O=C(Nc1ccc(Br)cn1)c1ccc2ccccc2c1` is less than 0.4 µg/mL.

`O=C(CN1C(=O)NC2(CCc3ccccc32)C1=O)NCc1cccc(C(F)(F)F)c1` (stereo unspecified) returned a solubility (kinetic) of 55.2 µg/mL (≈ 132 µM). `Cc1cc(=O)[nH]c(SCC(=O)c2ccc(F)c(C)c2)n1` returned a solubility (kinetic) of more than 43.8 µg/mL. The figure for `O=C(O)c1ccccc1OCc1nc2ccccc2s1` is less than 0.6 µg/mL.

Take `Cc1ccc(C(C)C)cc1OCC(=O)NCCCn1ccnc1`: the solubility (kinetic) was more than 47.3 µg/mL. Next, `COc1ccc(/C=C2\SC(N)=NC2=O)cc1`: 3.9 µg/mL (≈ 16.6 µM); `CC(C)OCCCNC(=O)Cc1ccc(Br)cc1`: 41.6 µg/mL (≈ 132 µM); `COc1ccc(N2CC(C(=O)NC3CCSC3=O)CC2=O)cc1` (stereo unspecified): more than 50.2 µg/mL. Regarding `CN(C1=NC(=O)CS1)c1ccc(O)cc1`, the solubility (kinetic) was more than 33.3 µg/mL. The figure for `Cc1ccc(S(=O)(=O)N2CCOCC2)cc1C(=O)c1nccn1C` is more than 52.4 µg/mL; for `CCN(C(=O)COc1ccc2ccc(=O)oc2c1)C1CCCCC1` it is more than 49.4 µg/mL; for `Cc1cccc(OCCC(=O)Nc2ccc(C)c(S(=O)(=O)N3CCOCC3)c2)c1` it is 21.5 µg/mL (≈ 51.4 µM). Compound `O=C1CCCC(=O)N1c1ccc(N2CCOCC2)c([N+](=O)[O-])c1` returned a kinetic solubility of more than 47.9 µg/mL. Compound `COc1cc(C(=O)Nc2cccc(NC(=O)c3cccs3)c2)cc(OC)c1OC` gave a kinetic solubility of 13.5 µg/mL (≈ 32.7 µM). The compound `CCCC(=O)N(Cc1cc(=O)[nH]c2ccccc12)c1ccc(OC)cc1` registered a solubility (kinetic) of more than 52.6 µg/mL. Regarding `Cc1ccccc1NC(=O)Nc1ccccn1`, the solubility (kinetic) was found to be 0.7 µg/mL (≈ 3.08 µM). The compound `Cc1cc(C)cc(NC(=O)Nc2ccc(N3CCCCC3)cc2)c1` returned a kinetic solubility of 0.3 µg/mL (≈ 0.928 µM). Against the preceding compound, the solubility kinetic is about 2.3-fold lower. Compound `Cc1cccc(NC(=O)C(C)Sc2nc3nc(C)cc(C)n3n2)c1` (stereo unspecified) showed a solubility (kinetic) of more than 51.2 µg/mL. The figure for `Nc1ccc(Oc2ccccc2-c2ccccc2)cc1` is 10.4 µg/mL (≈ 39.8 µM). The figure for `COc1ccccc1N1CCN(C(=O)c2cc(C(C)(C)C)oc2C)CC1` is 41.8 µg/mL (≈ 117 µM).

Turning to `O=C1c2ccccc2C(=O)N1CCOc1ccccc1Cl`, the kinetic solubility amounted to 3.5 µg/mL (≈ 11.6 µM). The compound `CCn1ccnc1CN1CCN(CCC(C)C)C(CCO)C1` (stereo unspecified) showed a solubility (kinetic) of more than 46.3 µg/mL.

On to `NS(=O)(=O)c1ccc(NC(=S)N2CCc3ccccc32)cc1`, for which the solubility (kinetic) came out at 2.1 µg/mL (≈ 6.3 µM). Compound `O=S(=O)(Nc1ccc2ccccc2n1)c1ccccc1` registered a kinetic solubility of more than 42.6 µg/mL. Next, `CCc1nc2sc3ccccc3c(=O)c2c(=O)n1Cc1ccc(OC)cc1`: 0.8 µg/mL (≈ 2.11 µM); `Cc1ccc(O)c(NC(=O)Cc2ccc3ccccc3c2)c1`: 6.5 µg/mL (≈ 22.3 µM); `COc1cc(S(=O)(=O)NCc2ccccn2)ccc1Cl`: more than 46.9 µg/mL. Next, `O=c1oc2ccccc2c(Nc2ccccc2)c1CN1CCCCC1`: 44.1 µg/mL (≈ 132 µM); `O=C(Nc1ncc(Cc2cccc(Cl)c2Cl)s1)C1CCCO1` (stereo unspecified): 1.9 µg/mL (≈ 5.32 µM). The figure for `C=CCn1cccc(C(=O)Nc2ccc(C)cc2)c1=O` is 39.7 µg/mL (≈ 148 µM). As for `Cc1cc(OCC(=O)NCCN2CCOCC2)cc(C)c1Cl`, the kinetic solubility is more than 49 µg/mL. `CCOc1ccc(N(CC(=O)N2CCCCCC2)S(=O)(=O)c2ccc(C)cc2)cc1` had a solubility (kinetic) of 23.6 µg/mL (≈ 54.8 µM). The figure for `O=C(NC1CCCCCC1)c1cccc(S(=O)(=O)N2CCOCC2)c1` is 6.5 µg/mL (≈ 17.7 µM).

On to `O=C1N=C(N2CCOCC2)S/C1=C\c1cccnc1`, for which the kinetic solubility is more than 41.3 µg/mL. `Cc1ccc(C(=O)CCc2ccc(N)cc2)cc1`: the kinetic solubility turned out to be 34.9 µg/mL (≈ 146 µM).

Take `CC(Cl)C(=O)Nc1c2c(nn1-c1ccccc1)CSC2` (stereo unspecified): the solubility (kinetic) was more than 46.2 µg/mL.

In turn, `COC(=O)c1cc(NC(=O)COC(=O)C2COc3ccccc3O2)cc(C(=O)OC)c1` (stereo unspecified) registered a solubility (kinetic) of 54.7 µg/mL (≈ 127 µM).

For orientation: solubility (kinetic) means solubility judged after dilution from a stock solution rather than from solid.
